{"source": "paper PMC7377239", "about": "“Cardiovascular Effects of Polychlorinated Biphenyls and Their Major Metabolites” (Environmental Health Perspectives, 2020)", "key": {"[1]": {"tested_on": "iCell endothelial cells (human iPSC-derived ECs)", "test": "Tube formation (tubulogenesis) assay in iCell endothelial cells, 18 h", "format": "cell-based", "settings": "Homo sapiens, Endothelial cell; for activity at 0.1 µM: 0.10 µM", "summary_of_the_method": "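Tube formation was measured by calcein AM imaging after overnight compound exposure (37°C, 0.5% DMSO vehicle) of human iPSC-derived ECs, 7,500/well, on reduced-growth-factor Geltrex in starvation medium. Vehicle-normalized data fitted to four-parameter logistic; POD set at one vehicle SD; without response, 100 μM taken as NOAEL.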"}, "[2]": {"tested_on": "iCell endothelial cells (human iPSC-derived ECs)", "test": "High-content imaging cytotoxicity in iCell endothelial cells, 24 h", "format": "cell-based", "settings": "Homo sapiens, Endothelial cell; for viability at 0.1 µM / activity at 0.1 µM: 0.10 µM", "summary_of_the_method": "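Readouts were vehicle-normalised and fitted to a four-parameter logistic model. POD was set at one SD beyond 0.5% DMSO control means, and 100 µM was assigned when no response was seen. Cells were monolayers of iCell endothelial cells imaged after 24 h compound exposure using nuclear, mitochondrial and calcein dyes.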"}, "[3]": {"settings": "iPSC-EC, 0.00 µM = 100.00, read-out: endo.mtl.18hr"}, "[4]": {"settings": "iPSC-EC, 0.00 µM = 100.00, read-out: endo.tlps.18hr"}, "[5]": {"settings": "iPSC-EC, 0.00 µM = 100.00, read-out: endo.tta.18hr"}, "[6]": {"settings": "iPSC-EC, 0.00 µM = 100.00, read-out: endo.ttl.18hr"}, "[7]": {"settings": "iPSC-EC, 0.00 µM = 100.00, read-out: endo.cyto.24hr"}, "[8]": {"settings": "iPSC-EC, 0.00 µM = 100.00, read-out: endo.mito.24hr"}, "[9]": {"settings": "iPSC-EC, 0.00 µM = 100.00, read-out: endo.mitoint.24hr"}, "[10]": {"settings": "iPSC-EC, 0.00 µM = 100.00, read-out: endo.nma.24hr"}, "[11]": {"settings": "iPSC-EC, 0.00 µM = 100.00, read-out: endo.tc.24hrs"}}, "note": "Where a name gives a salt, the structure may show the parent alone. Read-outs that look alike come from different tables or passages of the source.", "data": [{"smiles": "Clc1cc(Cl)c(-c2cc(Cl)c(Cl)cc2Cl)cc1Cl", "note": "[PCB153]", "values": [{"measurement": "activity at 0.01 µM", "setting": "[1]; [3]", "result": 121, "unit": "%"}, {"measurement": "activity at 0.01 µM", "setting": "[1]; [4]", "result": 80.7, "unit": "%"}, {"measurement": "activity at 0.01 µM", "setting": "[1]; [5]", "result": 103, "unit": "%"}, {"measurement": "activity at 0.01 µM", "setting": "[1]; [6]", "result": 116, "unit": "%"}, {"measurement": "activity at 0.1 µM", "setting": "[1]; [3]", "result": 119, "unit": "%"}, {"measurement": "activity at 0.1 µM", "setting": "[1]; [4]", "result": 104, "unit": "%"}, {"measurement": "activity at 0.1 µM", "setting": "[1]; [5]", "result": 124, "unit": "%"}, {"measurement": "activity at 0.1 µM", "setting": "[1]; [6]", "result": 134, "unit": "%"}, {"measurement": "activity at 1 µM", "setting": "[1]; [3]", "result": 122, "unit": "%"}, {"measurement": "activity at 1 µM", "setting": "[1]; [4]", "result": 111, "unit": "%"}, {"measurement": "activity at 1 µM", "setting": "[1]; [5]", "result": 111, "unit": "%"}, {"measurement": "activity at 1 µM", "setting": "[1]; [6]", "result": 123, "unit": "%"}, {"measurement": "activity at 10 µM", "setting": "[1]; [3]", "result": 135, "unit": "%"}, {"measurement": "activity at 10 µM", "setting": "[1]; [4]", "result": 202, "unit": "%"}, {"measurement": "activity at 10 µM", "setting": "[1]; [5]", "result": 148, "unit": "%"}, {"measurement": "activity at 10 µM", "setting": "[1]; [6]", "result": 157, "unit": "%"}, {"measurement": "activity at 100 µM", "setting": "[1]; [3]", "result": 55.1, "unit": "%"}, {"measurement": "activity at 100 µM", "setting": "[1]; [4]", "result": 21.1, "unit": "%"}, {"measurement": "activity at 100 µM", "setting": "[1]; [5]", "result": 20.2, "unit": "%"}, {"measurement": "activity at 100 µM", "setting": "[1]; [6]", "result": 22.9, "unit": "%"}, {"measurement": "minimal effective concentration", "setting": "[1]; iPSC-EC, 100.00 = highest concentration tested, read-out: endo.mtl.18hr POD", "result": 0.007, "unit": "µM"}, {"measurement": "minimal effective concentration", "setting": "[1]; iPSC-EC, 100.00 = highest concentration tested, read-out: endo.tlps.18hr POD", "result": 1.93, "unit": "µM"}, {"measurement": "minimal effective concentration", "setting": "[1]; iPSC-EC, 100.00 = highest concentration tested, read-out: endo.tta.18hr POD", "result": 3.83, "unit": "µM"}, {"measurement": "minimal effective concentration", "setting": "[1]; iPSC-EC, 100.00 = highest concentration tested, read-out: endo.ttl.18hr POD", "result": 0.58, "unit": "µM"}, {"measurement": "viability at 0.01 µM", "setting": "[2]; [7]", "result": 97.6, "unit": "%"}, {"measurement": "activity at 0.01 µM", "setting": "[2]; [8]", "result": 97.9, "unit": "%"}, {"measurement": "activity at 0.01 µM", "setting": "[2]; [9]", "result": 86, "unit": "%"}, {"measurement": "activity at 0.01 µM", "setting": "[2]; [10]", "result": 102, "unit": "%"}, {"measurement": "viability at 0.01 µM", "setting": "[2]; [11]", "result": 97.6, "unit": "%"}, {"measurement": "viability at 0.1 µM", "setting": "[2]; [7]", "result": 97.8, "unit": "%"}, {"measurement": "activity at 0.1 µM", "setting": "[2]; [8]", "result": 98.2, "unit": "%"}, {"measurement": "activity at 0.1 µM", "setting": "[2]; [9]", "result": 85.5, "unit": "%"}, {"measurement": "activity at 0.1 µM", "setting": "[2]; [10]", "result": 101, "unit": "%"}, {"measurement": "viability at 0.1 µM", "setting": "[2]; [11]", "result": 97.8, "unit": "%"}, {"measurement": "viability at 1 µM", "setting": "[2]; [7]", "result": 103, "unit": "%"}, {"measurement": "activity at 1 µM", "setting": "[2]; [8]", "result": 103, "unit": "%"}, {"measurement": "activity at 1 µM", "setting": "[2]; [9]", "result": 84.3, "unit": "%"}, {"measurement": "activity at 1 µM", "setting": "[2]; [10]", "result": 100, "unit": "%"}, {"measurement": "viability at 1 µM", "setting": "[2]; [11]", "result": 103, "unit": "%"}, {"measurement": "viability at 10 µM", "setting": "[2]; [7]", "result": 109, "unit": "%"}, {"measurement": "activity at 10 µM", "setting": "[2]; [8]", "result": 110, "unit": "%"}, {"measurement": "activity at 10 µM", "setting": "[2]; [9]", "result": 80.5, "unit": "%"}, {"measurement": "activity at 10 µM", "setting": "[2]; [10]", "result": 98, "unit": "%"}, {"measurement": "viability at 10 µM", "setting": "[2]; [11]", "result": 109, "unit": "%"}, {"measurement": "viability at 100 µM", "setting": "[2]; [7]", "result": 45.5, "unit": "%"}, {"measurement": "activity at 100 µM", "setting": "[2]; [8]", "result": 42, "unit": "%"}, {"measurement": "activity at 100 µM", "setting": "[2]; [9]", "result": 57.6, "unit": "%"}, {"measurement": "activity at 100 µM", "setting": "[2]; [10]", "result": 108, "unit": "%"}, {"measurement": "viability at 100 µM", "setting": "[2]; [11]", "result": 46.4, "unit": "%"}, {"measurement": "minimal effective concentration", "setting": "[2]; iPSC-EC, 100.00 = highest concentration tested, read-out: endo.cyto.24hr POD", "result": 18.6, "unit": "µM"}, {"measurement": "minimal effective concentration", "setting": "[2]; iPSC-EC, 100.00 = highest concentration tested, read-out: endo.mito.24hr POD", "result": 18.6, "unit": "µM"}, {"measurement": "minimal effective concentration", "setting": "[2]; iPSC-EC, 100.00 = highest concentration tested, read-out: endo.mitoint.24hr POD", "result": 0.07, "unit": "µM"}, {"measurement": "minimal effective concentration", "setting": "[2]; iPSC-EC, 100.00 = highest concentration tested, read-out: endo.nma.24hr POD", "result": 62.5, "unit": "µM"}, {"measurement": "minimal effective concentration", "setting": "[2]; iPSC-EC, 100.00 = highest concentration tested, read-out: endo.tc.24hrs POD", "result": 49.2, "unit": "µM"}]}, {"smiles": "O=S(=O)(O)Oc1cc(Cl)c(-c2cc(Cl)ccc2Cl)cc1Cl", "note": "[4-PCB 52 sulfate]", "values": [{"measurement": "minimal effective concentration", "setting": "[1]; endothelial cells (endo), tube formation mtl, 18 hr, read-out: POD endo.mtl.18hr", "result": 7.44, "unit": "µM"}, {"measurement": "minimal effective concentration", "setting": "[1]; endothelial cells (endo), tube formation tlps, 18 hr, read-out: POD endo.tlps.18hr", "result": 5.74, "unit": "µM"}, {"measurement": "minimal effective concentration", "setting": "[1]; endothelial cells (endo), tube formation tta, 18 hr, read-out: POD endo.tta.18hr", "result": 8.83, "unit": "µM"}, {"measurement": "minimal effective concentration", "setting": "[1]; endothelial cells (endo), tube formation ttl, 18 hr, read-out: POD endo.ttl.18hr", "result": 9.64, "unit": "µM"}, {"measurement": "minimal effective concentration", "setting": "[2]; endothelial cells (endo), cyto, 24 hr, read-out: POD endo.cyto.24hr", "result": 41.2, "unit": "µM"}, {"measurement": "minimal effective concentration", "setting": "[2]; endothelial cells (endo), mito, 24 hr, read-out: POD endo.mito.24hr", "result": 41.2, "unit": "µM"}, {"measurement": "minimal effective concentration", "setting": "[2]; endothelial cells (endo), mitoint, 24 hr, read-out: POD endo.mitoint.24hr", "result": 100, "unit": "µM"}, {"measurement": "minimal effective concentration", "setting": "[2]; endothelial cells (endo), nma, 24 hr, read-out: POD endo.nma.24hr", "result": 100, "unit": "µM"}, {"measurement": "minimal effective concentration", "setting": "[2]; endothelial cells (endo), tc, 24 hr, read-out: POD endo.tc.24hr", "result": 50.3, "unit": "µM"}]}]}
